This is an account of results in ChEMBL document CHEMBL1136351, “Synthesis and DNA-binding affinity of A-C8/C-C2 alkoxyamido-linked pyrrolo[2,1-c][1,4]benzodiazepine dimers” (Bioorg Med Chem Lett, 2003).

Holding throughout (assay type): functional
Common to all, as to details: Bos taurus

The test system of experiment [1] is Nucleic Acid. As to the kind of experiment: Thermal denaturation in calf thymus DNA after incubation at 37 degrees C for 0h at PBD/DNA 1:5 molar ratio.
In experiment [2] the test system is Nucleic Acid. Put plainly: Thermal denaturation in calf thymus DNA after incubation at 37 degrees C Centigrade for 18 hr at PBD/DNA 1:5 molar ratio.
Experiment [3] has as its system Nucleic Acid. As to the kind of experiment: Thermal denaturation in calf thymus DNA after incubation at 37 degree C for 18 hr at PBD/DNA 1:5 molar ratio.
Experiment [4] concerns Nucleic Acid. Put plainly: Thermal denaturation in calf thymus DNA after incubation at 37 degrees C for 18 hr at PBD/DNA 1:5 molar ratio.

On to `COc1cc2c(cc1OCC(=O)N[C@H]1C[C@H]3C=Nc4cc(OCc5ccccc5)c(OC)cc4C(=O)N3C1)N=C[C@@H]1CCCN1C2=O`, for which the values for the ΔTm with Nucleic Acid [1] and in the experiment on Nucleic Acid [2] were 0.9 °C and 4.7 °C, respectively.
For the compound `COc1cc2c(cc1O)N=C[C@@H]1CCCN1C2=O`, the ΔTm – broadly, the shift of the melting midpoint relative to a reference – was 0.3 °C with Nucleic Acid [1] and 0.7 °C in the experiment on Nucleic Acid [3].
As to `COc1cc2c(cc1OCCCCC(=O)N[C@H]1C[C@H]3C=Nc4cc(OCc5ccccc5)c(OC)cc4C(=O)N3C1)N=C[C@@H]1CCCN1C2=O`, the ΔTm with Nucleic Acid [1] was determined as 6.1 °C; with Nucleic Acid [4] it was 10.9 °C.
Take `COc1cc2c(cc1OCCCC(=O)N[C@H]1C[C@H]3C=Nc4cc(OCc5ccccc5)c(OC)cc4C(=O)N3C1)N=C[C@@H]1CCCN1C2=O`: the ΔTm with Nucleic Acid [1] is 3.7 °C; in the experiment with Nucleic Acid [4] it was 9.3 °C.
